Laboratory results from patent US8785452B2, “Anti-infective compounds” (priority 2008, dated 2014).
Like-named read-outs stand apart in the source and are kept apart here.

What was measured:
[1] = tested on: M. tuberculosis H37Rv-GFP; assay: microbe, parasite or virus in culture; format: cell-based, Mycobacterium tuberculosis; conditions: Mycobacterium tuberculosis, H37RV, Macrophage
Raw264.7 cells [2] = conditions: mouse, 5 days; for Primary QIM CellNb: 20 μM
Raw264.7 cells [3] = assay: Cell number (CellNb) from image analysis of the phenotypic cell-based assay; conditions: for Primary QIM CellNb: primary screen, 20 μM
[4] = confirmation, 20 uM, read-out: QIM Confirm % Inhibition 20 uM
[5] = primary screen, 20 μM, read-out: Primary QIM % Inhibition

Structure (SMILES) | inhibition at 20 µM [1, 4] [%] | inhibition at 20 µM [1, 5] [%] | Primary QIM CellNb (Raw264.7 cells [2]) | Primary QIM CellNb (Raw264.7 cells [3]) | QIM Confirm CellNb 2 uM (Raw264.7 cells [3]; confirmation) | QIM Confirm CellNb 2 uM (Raw264.7 cells [2]) | QIM Confirm CellNb 0.2 uM (Raw264.7 cells [2]; 0.2 uM) | QIM Confirm CellNb 20 uM (Raw264.7 cells [2]; 20 uM) | QIM Confirm CellNb 0.2 uM (Raw264.7 cells [3]; confirmation, 0.2 uM) | QIM Confirm CellNb 20 uM (Raw264.7 cells [3]; confirmation, 20 uM)
O=C(N/N=C/c1ccc(Cl)cc1)c1ccncc1 [IPK 000 041 53] | 97 | 100 | 98.1 | 426.8 |  |  |  |  |  | 
O=C(O)COc1ccccc1/C=N/NC(=O)c1ccncc1 [IPK 000 105 19] | 106 | 98.7 | 104.1 | 374.3 | 566.4 |  |  |  |  | 
O=[N+]([O-])c1cc2c(cc1/C=N/c1ccc(S(=O)(=O)Nc3nccs3)cc1)OCO2 [IPK 000 057 78] | 35.5 | -10.9 | 12.6 | 177.0 |  |  |  |  |  | 
CCOc1ccc(NC(=S)Nc2ccccc2)cc1 [IPK 000 108 78] | 68.8 | 78.8 | 38.3 | 200.3 |  |  |  |  |  | 
N#Cc1cc(Br)c([N+](=O)[O-])cc1C#N [IPK 000 042 72] | 57.6 | 11.9 | −1.9 | 152.0 | 96.1 | 82.5 |  |  |  | 
Oc1c(Cl)cc(Cl)cc1C(=S)Nc1ccccc1 [IPK 000 042 78] | 91.7 | 73.9 | 33.0 | 194.5 |  |  |  |  |  | 
O=C(N/N=C/c1ccc(O)c([N+](=O)[O-])c1)c1ccncc1 [IPK 000 043 11] | 104 | 104 | 99.5 | 366.0 |  |  |  |  |  | 
O=C(Nc1cc(Cl)cc(Cl)c1)c1cc([N+](=O)[O-])ccc1Cl [IPK 000 049 20] | 88.6 | 71.5 | 54.8 | 155.5 |  |  |  |  |  | 
O=C(Nc1cccnc1)c1ccc(COc2ccc3ccccc3c2)o1 [IPK 000 124 43] | 64.7 | 35.6 | 26.2 | 168.3 |  |  |  |  |  | 
CC(Oc1cccc2ccccc12)C(=O)NNC(=O)c1cc2ccccc2oc1=O (stereo not shown) [IPK 000 095 07] | 75.8 | 70.9 | 8.0 | 388.3 |  |  |  |  |  | 
O=C(Nc1cc(Cl)cc(Cl)c1)c1ccc([N+](=O)[O-])cc1Cl [IPK 000 049 03] | 48.6 | 62.6 | 56.0 | 205.3 |  |  |  |  |  | 
Cc1cccc(/C=N/NC(=O)c2ccncc2)c1 [IPK 000 043 26] | 102 | 109 | 102.2 | 347.3 | 523.3 | 99.5 | 98.6 | 72.4 | 413.6 | 430.3
O=C(N/N=C/c1ccc([N+](=O)[O-])cc1)c1ccncc1 [IPK 000 041 48] | 88.4 | 84.5 | 97.5 | 315.3 |  |  |  |  |  | 
O=C(Nc1sc2c(c1C(=O)Nc1ccccc1)CCC2)c1ccccc1Cl [IPK 000 073 68] | 92.6 | 88.2 | 74.7 | 202.3 |  |  |  |  |  | 
COc1cccc(/C=N/NC(=O)c2ccncc2)c1O [IPK 000 043 08] | 95.1 | 87.3 | 102.7 | 255.5 |  |  |  |  |  | 
CCOC(=O)/C=C/C(=O)NNC(=O)c1cccs1 [IPK 000 109 99] | 28.1 | 8.5 | 20.3 | 183.0 | 174.3 | 101.3 |  |  |  | 
CC(/C=N/NC(=O)c1cccc(F)c1)c1ccccc1 (stereo not shown) [IPK 000 104 13] | 89.6 | 68.8 | 25.2 | 115.8 |  |  |  |  |  | 
O=C(N/N=C/c1cc2ccccc2[nH]1)c1ccncc1 [IPK 000 043 12] | 100 | 69.9 | 104.6 | 195.0 |  |  |  |  |  | 

Structure (SMILES) | inhibition at 20 µM [1, 4] [%] | inhibition at 20 µM [1, 5] [%] | Primary QIM CellNb (Raw264.7 cells [2]) | Primary QIM CellNb (Raw264.7 cells [3]) | QIM Confirm CellNb 2 uM (Raw264.7 cells [3]; confirmation) | QIM Confirm CellNb 2 uM (Raw264.7 cells [2]) | QIM Confirm CellNb 0.2 uM (Raw264.7 cells [2]; 0.2 uM) | QIM Confirm CellNb 20 uM (Raw264.7 cells [2]; 20 uM) | QIM Confirm CellNb 0.2 uM (Raw264.7 cells [3]; confirmation, 0.2 uM) | QIM Confirm CellNb 20 uM (Raw264.7 cells [3]; confirmation, 20 uM)
O=C(N/N=C/c1ccc([N+](=O)[O-])s1)C1CCN(Cc2ccc(Br)cc2)CC1 [IPK 000 091 49] | 95.1 | 90.5 | 9.3 | 110.5 |  |  |  |  |  | 
O=C(NC12CC3CC(CC(C3)C1)C2)c1ccc([N+](=O)[O-])cc1 [IPK 000 113 77] | 74.3 | 60.9 | 48.4 | 319.8 |  |  |  |  |  | 
NNC(=O)c1ccc(COc2ccccc2Cl)o1 [IPK 000 123 03] | 72.1 | 78.3 | 12.0 | 540.8 |  |  |  |  |  | 
O=C(N/N=C/c1ccc(O)cc1)c1ccncc1 [IPK 000 043 07] | 98.6 | 104 | 102.5 | 303.5 |  |  |  |  |  | 
Cn1cc(/C=N/NC(=O)c2cccc(F)c2)c2ccccc21 [IPK 000 104 11] | 83.3 | 89.7 | 19.9 | 203.8 |  |  |  |  |  | 
CCOc1ccc(/C=N/NC(=O)c2ccncc2)cc1 [IPK 000 041 49] | 94.5 | 83.8 | 102.3 | 336.5 |  |  |  |  |  | 
O=C(N/N=C/c1ccc(F)cc1)c1ccncc1 [IPK 000 041 52] | 93.7 | 75.6 | 103.2 | 262.5 |  |  |  |  |  | 
Cc1ccccc1/C=N/NC(=O)c1ccncc1 [IPK 000 043 29] | 100 | 111 | 105.2 | 415.5 |  |  |  |  |  | 
COc1cc(/C=N/NC(=O)c2ccncc2)cc(Br)c1OC [IPK 000 078 53] | 107 | 84 | 95.6 | 386.0 |  |  |  |  |  | 
CCOc1cc(/C=N/NC(=O)c2ccncc2)ccc1O [IPK 000 042 99] | 106 | 103 | 104.1 | 364.0 |  |  |  |  |  | 
COc1ccccc1/C=N/NC(=O)c1ccncc1 [IPK 000 043 01] | 103 | 86.6 | 103.6 | 287.8 |  |  |  |  |  | 
O=C(N/N=C/c1ccc(O)cc1O)c1ccncc1 [IPK 000 043 28] | 95.9 | 94.9 | 87.1 | 326.5 |  |  |  |  |  | 
COc1cc(Br)cc(/C=N/NC(=O)c2ccncc2)c1O [IPK 000 079 15] | 97.9 | 82.4 | 90.5 | 383.3 |  |  |  |  |  | 
CC1=C(Nc2ccc(S(=O)(=O)Nc3nc(C)cc(C)n3)cc2)Sc2ccccc2N1 [IPK 000 112 67] | 32.6 | -36.5 | 27.6 | 250.8 |  |  |  |  |  | 
CCCCc1ccc(NC(=O)c2ccc([N+](=O)[O-])cc2Cl)cc1 [IPK 000 047 17] | 88.5 | 57.6 | 69.7 | 152.3 |  |  |  |  |  | 
COc1cc(CN(C)NC(=O)c2ccccn2)ccc1OC(=O)c1cccs1 [IPK 000 058 20] | 44.3 | 98.1 | 66.6 | 344.8 |  |  |  |  |  | 
CCc1ccc(/C=N/NC(=O)c2ccncc2)cc1 [IPK 000 043 31] | 100 | 94.6 | 101.5 | 334.0 |  |  |  |  |  | 
